Data reported in PubChem BioAssay AID2060897 (Molecular Pharmacology Branch, DTP, NCI, 2025).

Test system: 966289-007-R4-J1-PDC complex spheroid viability
Assay: Anticancer human tumor 966289-007-R4-J1-PDC patient-derived pancreatic adenocarcinoma cell line growth inhibition [RAS]
Details: for IC50: curve of first compound; for viability, T/C: stronger effect = lower value; active means viability on the fitted dose curve at most 10% of control; inactive means the rest
How it was run: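 Agents were tested in combination matrices in half-log decrements from a top concentration at or near clinical Cmax (10 microM if undetermined). Targets were multi-cell spheroids of tumour lines plus HUVEC and MSC stromal cells.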

[1] = second compound 0.0316 µM, first compound 0.0316 µM
[2] = second compound 0.0316 µM, first compound 0.1 µM
[3] = second compound 0.0316 µM, first compound 0.316 µM
[4] = second compound 0.0316 µM, first compound 1 µM
[5] = second compound 0.0316 µM, first compound 3.16 µM
[6] = second compound 0.0316 µM, first compound 10 µM
[7] = second compound 0.1 µM, first compound 0.0316 µM
[8] = second compound 0.1 µM, first compound 0.1 µM
[9] = second compound 0.1 µM, first compound 0.316 µM
[10] = second compound 0.1 µM, first compound 1 µM
[11] = second compound 0.1 µM, first compound 3.16 µM
[12] = second compound 0.1 µM, first compound 10 µM
[13] = second compound 0.316 µM, first compound 0.0316 µM
[14] = second compound 0.316 µM, first compound 0.1 µM
[15] = second compound 0.316 µM, first compound 0.316 µM
[16] = second compound 0.316 µM, first compound 1 µM
[17] = second compound 0.316 µM, first compound 3.16 µM
[18] = second compound 0.316 µM, first compound 10 µM
[19] = second compound 1 µM, first compound 0.0316 µM
[20] = second compound 1 µM, first compound 0.1 µM
[21] = second compound 1 µM, first compound 0.316 µM
[22] = second compound 1 µM, first compound 1 µM
[23] = second compound 1 µM, first compound 3.16 µM
[24] = second compound 1 µM, first compound 10 µM
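Further: spheroids exposed to agents for one week before readout.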
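Wherever viability, T/C is given: percent viability relative to DMSO vehicle control wells as 100%.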

CC(=O)OC12COC1CC(O)C1(C)C(=O)C(O)C3=C(C)C(OC(=O)C(O)C(NC(=O)OC(C)(C)C)c4ccccc4)CC(O)(C(OC(=O)c4ccccc4)C21)C3(C)C (centres undefined) + C=CC(=O)N1CCN(c2nc(OCC3CCCN3C)nc3c(F)c(-c4nc(N)cc(C)c4C(F)(F)F)c(Cl)cc23)C(C)C1
active: viability, T/C (second compound 0.00316 µM, first compound 0.0316 µM) 7.49% | viability, T/C (second compound 0.01 µM, first compound 0.0316 µM) 7.11% | viability, T/C [1] 7.67% | viability, T/C [7] 6.48% | viability, T/C [13] 7.29% | viability, T/C [14] 12% | viability, T/C [19] 8.02% | viability, T/C [20] 12.3%
< 31.6 nM: IC50 (second compound 0.00316 µM) | IC50 (second compound 0.01 µM) | IC50 (second compound 0.0316 µM) | IC50 (second compound 0.1 µM) | IC50 (second compound 0.316 µM) | IC50 (second compound 1 µM)
inactive: viability, T/C (second compound 0.00316 µM, first compound 0.1 µM) 11.8% | viability, T/C (second compound 0.00316 µM, first compound 0.316 µM) 14.4% | viability, T/C (second compound 0.00316 µM, first compound 1 µM) 20.6% | viability, T/C (second compound 0.00316 µM, first compound 3.16 µM) 30.4% | viability, T/C (second compound 0.00316 µM, first compound 10 µM) 48.1% | viability, T/C (second compound 0.01 µM, first compound 0.1 µM) 11.6% | viability, T/C (second compound 0.01 µM, first compound 0.316 µM) 14.8% | viability, T/C (second compound 0.01 µM, first compound 1 µM) 19.2% | viability, T/C (second compound 0.01 µM, first compound 3.16 µM) 31.9% | viability, T/C (second compound 0.01 µM, first compound 10 µM) 60.7% | viability, T/C [2] 13.9% | viability, T/C [3] 10.9% | viability, T/C [4] 18.2% | viability, T/C [5] 33.2% | viability, T/C [6] 56.3% | viability, T/C [8] 12.7% | viability, T/C [9] 15.2% | viability, T/C [10] 21.9% | viability, T/C [11] 30.4% | viability, T/C [12] 57.9% | viability, T/C [15] 12.1% | viability, T/C [16] 15.3% | viability, T/C [17] 30.3% | viability, T/C [18] 56.1% | viability, T/C [21] 12.5% | viability, T/C [22] 19% | viability, T/C [23] 35.8% | viability, T/C [24] 49.2%

CC(=O)OC12COC1CC(O)C1(C)C(=O)C(O)C3=C(C)C(OC(=O)C(O)C(NC(=O)OC(C)(C)C)c4ccccc4)CC(O)(C(OC(=O)c4ccccc4)C21)C3(C)C (centres undefined) + C#Cc1c(F)ccc2cc(O)cc(-c3ncc4c(N5CC6CCC(C5)N6)nc(OCC56CCCN5CC(F)C6)nc4c3F)c12
inactive: viability, T/C [1] 9.75% | viability, T/C [2] 17.9% | viability, T/C [3] 20.4% | viability, T/C [4] 25.6% | viability, T/C [5] 50.5% | viability, T/C [6] 69.9% | viability, T/C [7] 10.9% | viability, T/C [8] 17.9% | viability, T/C [9] 19.7% | viability, T/C [10] 24.3% | viability, T/C [11] 36.3% | viability, T/C [12] 70.3% | viability, T/C [13] 10.4% | viability, T/C [14] 19.1% | viability, T/C [15] 19.3% | viability, T/C [16] 26% | viability, T/C [17] 49.9% | viability, T/C [18] 68.4% | viability, T/C [19] 9.72% | viability, T/C [20] 18.3% | viability, T/C [21] 21.2% | viability, T/C [22] 31.8% | viability, T/C [23] 44.9% | viability, T/C [24] 71.8% | viability, T/C (second compound 3.16 µM, first compound 0.0316 µM) 10.6% | viability, T/C (second compound 3.16 µM, first compound 0.1 µM) 20.9% | viability, T/C (second compound 3.16 µM, first compound 0.316 µM) 25% | viability, T/C (second compound 3.16 µM, first compound 1 µM) 31.7% | viability, T/C (second compound 3.16 µM, first compound 3.16 µM) 44.6% | viability, T/C (second compound 3.16 µM, first compound 10 µM) 83.2% | viability, T/C (second compound 10 µM, first compound 0.0316 µM) 10.5% | viability, T/C (second compound 10 µM, first compound 0.1 µM) 16.6% | viability, T/C (second compound 10 µM, first compound 0.316 µM) 17.8% | viability, T/C (second compound 10 µM, first compound 1 µM) 27.1% | viability, T/C (second compound 10 µM, first compound 3.16 µM) 42.6% | viability, T/C (second compound 10 µM, first compound 10 µM) 53.9%
< 31.6 nM: IC50 (second compound 0.0316 µM) | IC50 (second compound 0.1 µM) | IC50 (second compound 0.316 µM) | IC50 (second compound 1 µM) | IC50 (second compound 3.16 µM) | IC50 (second compound 10 µM)
